In patent publication US20230233569A1 (Revolution Medicines, Inc., priority 2020, published 2023):
Several values for one entry are separate records, joined by “and”; a condition that tells them apart may be missing. Equal entries are not always repeated. Where two headings read alike, the source gives them in different places.

Tests used:
Capan-1 (K-Ras G12V) [1] = assay: CellTiter-Glo cell viability assay, 5-day treatment; format: cell-based; conditions: Homo sapiens, CAPAN-1, 120 h, 5-day treatment; read-out: Capan-1 Cell Viability assay data (K-Ras G12V, IC50)
Summary of the method: (§1)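 Five-day compound treatment of plated cells; luminescent read after ~30 min at RT. Percent-of-DMSO data fit to a four-parameter logistic model.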

NCI-H358 (K-Ras G12C) = assay: as above; format: cell-based; conditions: Homo sapiens
Summary of the method: as §1

KRAS G12C = KRAS G12C (Homo sapiens, UniProt P01116+P62937, G12C); assay: Disruption of BRAF RBD interaction with Ras (FRET / MOA assay, with Cyclophilin A); format: biochemical
KRAS G12C, sequence (P01116 1-169 isoform P01116-2 G12C): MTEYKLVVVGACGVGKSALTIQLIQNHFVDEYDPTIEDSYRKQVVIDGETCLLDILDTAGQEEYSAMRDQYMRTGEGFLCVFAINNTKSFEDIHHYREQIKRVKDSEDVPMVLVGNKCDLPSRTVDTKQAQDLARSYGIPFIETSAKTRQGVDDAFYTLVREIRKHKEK
KRAS G12C, sequence (P62937 whole entry): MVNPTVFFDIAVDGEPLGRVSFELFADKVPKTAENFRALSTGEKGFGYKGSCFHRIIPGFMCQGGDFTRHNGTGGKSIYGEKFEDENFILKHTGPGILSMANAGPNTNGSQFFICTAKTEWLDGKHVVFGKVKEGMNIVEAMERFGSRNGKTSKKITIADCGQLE
Summary of the method: (§2)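 IC50 values reflect loss of K-Ras binding to BRAF RBD, read as a lowered TR-FRET ratio compared with DMSO, driven by compound-mediated K-Ras:Cyclophilin A complex formation. Compound top dose 30 μM final, 3-fold steps, 3 h incubation at 25 °C before a 1.5 h antibody step.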

KRAS G12D = KRAS G12D (Homo sapiens, UniProt P01116+P62937, G12D); assay: as above; format: biochemical
KRAS G12D, sequence (P01116 1-169 isoform P01116-2 G12D limits assumed): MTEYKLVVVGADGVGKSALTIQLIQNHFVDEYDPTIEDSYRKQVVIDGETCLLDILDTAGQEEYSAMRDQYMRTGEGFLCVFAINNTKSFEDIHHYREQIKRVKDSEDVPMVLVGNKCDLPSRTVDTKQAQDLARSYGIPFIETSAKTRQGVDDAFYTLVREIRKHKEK
KRAS G12D, sequence (P62937 whole entry): as the sequence (P62937 whole entry) above
Summary of the method: as §2

KRAS G12S = KRAS G12S (Homo sapiens, UniProt P01116+P62937, G12S); assay: as above; format: biochemical
KRAS G12S, sequence (P01116 1-169 isoform P01116-2 G12S limits assumed): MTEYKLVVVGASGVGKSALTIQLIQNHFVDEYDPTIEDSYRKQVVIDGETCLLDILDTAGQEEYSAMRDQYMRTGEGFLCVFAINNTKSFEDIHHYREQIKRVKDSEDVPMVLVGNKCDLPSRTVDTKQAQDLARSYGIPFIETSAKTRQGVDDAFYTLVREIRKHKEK
KRAS G12S, sequence (P62937 whole entry): as the sequence (P62937 whole entry) above
Summary of the method: as §2

KRAS G12V = KRAS G12V (Homo sapiens, UniProt P01116+P62937, G12V); assay: as above; format: biochemical
KRAS G12V, sequence (P01116 1-169 isoform P01116-2 G12V limits assumed): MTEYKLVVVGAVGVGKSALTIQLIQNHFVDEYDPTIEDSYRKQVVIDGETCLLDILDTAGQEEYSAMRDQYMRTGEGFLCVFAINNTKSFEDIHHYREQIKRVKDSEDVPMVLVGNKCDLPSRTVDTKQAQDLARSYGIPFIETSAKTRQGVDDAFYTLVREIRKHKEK
KRAS G12V, sequence (P62937 whole entry): as the sequence (P62937 whole entry) above
Summary of the method: as §2

KRAS G13C = KRAS G13C (Homo sapiens, UniProt P01116+P62937, G13C); assay: as above; format: biochemical
KRAS G13C, sequence (P01116 1-169 isoform P01116-2 G13C): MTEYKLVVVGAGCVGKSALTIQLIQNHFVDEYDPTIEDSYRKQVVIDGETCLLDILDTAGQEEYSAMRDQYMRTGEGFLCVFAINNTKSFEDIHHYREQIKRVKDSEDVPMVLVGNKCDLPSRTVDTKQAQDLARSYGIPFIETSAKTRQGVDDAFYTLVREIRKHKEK
KRAS G13C, sequence (P62937 whole entry): as the sequence (P62937 whole entry) above
Summary of the method: as §2

KRAS G13D = KRAS G13D (Homo sapiens, UniProt P01116+P62937, G13D); assay: as above; format: biochemical
KRAS G13D, sequence (P01116 1-169 isoform P01116-2 G13D limits assumed): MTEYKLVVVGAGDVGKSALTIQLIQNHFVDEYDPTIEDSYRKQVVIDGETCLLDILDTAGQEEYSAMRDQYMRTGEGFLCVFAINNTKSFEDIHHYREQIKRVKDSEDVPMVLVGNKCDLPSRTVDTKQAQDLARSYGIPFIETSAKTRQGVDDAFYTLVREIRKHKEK
KRAS G13D, sequence (P62937 whole entry): as the sequence (P62937 whole entry) above
Summary of the method: as §2

KRAS WT = KRAS WT (Homo sapiens, UniProt P01116+P62937); assay: as above; format: biochemical
KRAS WT, sequence (P01116 1-169 isoform P01116-2 limits assumed): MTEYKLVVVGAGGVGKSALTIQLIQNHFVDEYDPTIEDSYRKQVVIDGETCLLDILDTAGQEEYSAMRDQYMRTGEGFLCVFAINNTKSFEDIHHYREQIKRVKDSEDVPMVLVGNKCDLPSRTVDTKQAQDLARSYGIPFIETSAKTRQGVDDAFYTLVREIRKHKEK
KRAS WT, sequence (P62937 whole entry): as the sequence (P62937 whole entry) above
Summary of the method: as §2

NRAS G12C = NRAS G12C (Homo sapiens, UniProt P01111+P62937, G12C); assay: as above; format: biochemical
NRAS G12C, sequence (P01111 whole entry G12C): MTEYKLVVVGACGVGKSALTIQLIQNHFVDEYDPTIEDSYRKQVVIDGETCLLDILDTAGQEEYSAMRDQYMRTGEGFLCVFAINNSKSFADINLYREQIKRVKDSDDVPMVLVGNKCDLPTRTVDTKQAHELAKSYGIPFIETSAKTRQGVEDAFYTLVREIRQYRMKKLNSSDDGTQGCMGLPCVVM
NRAS G12C, sequence (P62937 whole entry): as the sequence (P62937 whole entry) above

NRAS WT = NRAS WT (Homo sapiens, UniProt P01111+P62937); assay: as above; format: biochemical; conditions: NRAS WT; read-out: NRAS WT FRET data IC50
NRAS WT, sequence (P01111 whole entry): as the sequence (P01111 whole entry G12C) above, with C12G counted along it
NRAS WT, sequence (P62937 whole entry): as the sequence (P62937 whole entry) above
Summary of the method: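 IC50 reflects compound-driven Ras:Cyclophilin A ternary complex displacing BRAF RBD, read as lowered TR-FRET ratio relative to DMSO after Eu anti-His (10 nM) and APC anti-GST (50 nM) detection for 1.5 h. Prior incubation 3 h, 25° C, with 12.5 nM GMPPNP-loaded Ras, 50 nM BRAF RBD, 25 μM Cyclophilin A; top compound 30 μM.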

AsPC-1 (K-Ras G12D) = assay: Potency assay: pERK, other cell line; format: cell-based; conditions: Homo sapiens, ASPC1
Capan-1 (K-Ras G12V) [2] = assay: Potency assay: pERK, other cell line; format: cell-based; conditions: Homo sapiens
[3] = read-out: KRAS G12D FRET data, IC50
[4] = read-out: KRAS G12S FRET data, IC50
[5] = KRAS G12V, read-out: KRAS G12V FRET data IC50
[6] = KRAS WT, read-out: KRAS WT FRET data IC50
[7] = NRAS G12C, read-out: NRAS G12C FRET data IC50
[8] = NCI-H358, H358, K-Ras G12C, read-out: Additional H358 Cell Viability assay data (K-Ras G12C, IC50)
[9] = KRAS G12C, read-out: KRAS G12C FRET data IC50
[10] = KRAS G13C, read-out: KRAS G13C FRET data IC50
[11] = KRAS G13D, read-out: KRAS G13D FRET data IC50

| SMILES | IC50 (KRAS G12D; [3]) | IC50 (KRAS G12S; [4]) | IC50 (KRAS G12V; [5]) | IC50 (KRAS WT; [6]) | IC50 (NRAS G12C; [7]) | IC50 (NCI-H358 (K-Ras G12C); [8]) [nM] | IC50 (KRAS G12C; [9]) [nM] | IC50 (KRAS G13C; [10]) [nM] | IC50 (KRAS G13D; [11]) [nM] | further results |
| --- | --- | --- | --- | --- | --- | --- | --- | --- | --- | --- |
| CCn1c(-c2cccnc2[C@H](C)OC)c2c3cc(ccc31)-c1cc(O)cc(c1)C[C@H](NC(=O)[C@H](C(C)C)N(C)C(=O)[C@H]1CCN(C(=O)OC)C1)C(=O)N1CCC[C@H](N1)C(=O)OCC(C)(C)C2 (atropisomer, axis not shown) [Example A3] | 100 to 1000 nM and > 10000 nM | 1000 to 10000 nM and 10 to 100 nM | 1000 to 10000 nM and 10 to 100 nM | 1000 to 10000 nM and 10 to 100 nM | 1000 to 10000 nM and 10 to 100 nM | – | – | – | – | IC50 (Capan-1 (K-Ras G12V) [1]): 10 to 100 nM; IC50 (NCI-H358 (K-Ras G12C); NCI-H358, 120 h, 5-day treatment, read-out: H358 Cell Viability IC50): 57 nM; IC50 (KRAS G12C; read-out: FRET G12C IC50): 29 nM; IC50 (KRAS G12C; read-out: KRAS G12C FRET data, IC50): 1000 to 10000 nM and 10 to 100 nM; IC50 (KRAS G12D; read-out: FRET G12D IC50): 545 nM; IC50 (KRAS G12V; read-out: FRET G12V IC50): 43 nM; IC50 (KRAS G13C; read-out: FRET G13C IC50): 99 nM; IC50 (KRAS G13C; read-out: KRAS G13C FRET data, IC50): 1000 to 10000 nM and 10 to 100 nM; IC50 (KRAS G13D; read-out: FRET G13D IC50): 160 nM; IC50 (NRAS WT): 10 to 100 nM; EC50 (AsPC-1 (K-Ras G12D)): 144 nM; EC50 (Capan-1 (K-Ras G12V) [2]): 8 nM |
| C=CC(=O)N1CCO[C@H]2CN(C(=O)N(C)[C@H](C(=O)N[C@H]3Cc4cccc(n4)-c4ccc5c(c4)c(c(-c4cccnc4[C@H](C)OC)n5CC(F)(F)F)CC(C)(C)COC(=O)C4CCCN(N4)C3=O)C(C)C)C[C@H]21 (some centres unmarked) [Example A595] | 1000 to 10000 nM | 1000 to 10000 nM | 1000 to 10000 nM | 100 to 1000 nM | 10 to 100 nM | < 10 | 10 to 100 | 10 to 100 | 1000 to 10000 | – |
| C=CC(=O)N1CCC2(C1)CN(C(=O)N(C)[C@H](C(=O)N[C@H]1Cc3nc(cs3)-c3ccc4c(c3)c(c(-c3cccnc3[C@H](C)OC)n4CC(F)(F)F)CC(C)(C)COC(=O)C3CCCN(N3)C1=O)C(C)C)C2 (some centres unmarked) [Example A603] | 100 to 1000 nM | 100 to 1000 nM | 100 to 1000 nM | 10 to 100 nM | 10 to 100 nM | 10 to 100 | 10 to 100 | 10 to 100 | 100 to 1000 | – |
| C=CC(=O)N1CCOC2(CCN(C(=O)N(C)[C@H](C(=O)N[C@H]3Cc4cccc(c4)-c4ccc5c(c4)c(c(-c4cccnc4[C@H](C)OC)n5CC(F)(F)F)CC(C)(C)COC(=O)C4CCCN(N4)C3=O)C(C)C)CC2)C1 (some centres unmarked) [Example A608] | 100 to 1000 nM | 100 to 1000 nM | 100 to 1000 nM | 100 to 1000 nM | 100 to 1000 nM | 10 to 100 | 100 to 1000 | 10 to 100 | 100 to 1000 | – |
| C=CC(=O)N1CCO[C@H]2CCN(C(=O)N(C)[C@H](C(=O)N[C@H]3Cc4nc(cs4)-c4ccc5c(c4)c(c(-c4cccnc4[C@H](C)OC)n5CC)CC(C)(C)COC(=O)C4CCCN(N4)C3=O)C(C)C)C[C@@H]21 (some centres unmarked) [Example A609] | 100 to 1000 nM | 10 to 100 nM | 10 to 100 nM | 10 to 100 nM | < 10 nM | < 10 | < 10 | 10 to 100 | 100 to 1000 | – |

Now from value to molecule, other results behind:

| IC50 (KRAS G12D; [3]) | IC50 (KRAS G12S; [4]) | IC50 (KRAS G12V; [5]) | IC50 (KRAS WT; [6]) | IC50 (NRAS G12C; [7]) | IC50 (NCI-H358 (K-Ras G12C); [8]) [nM] | IC50 (KRAS G12C; [9]) [nM] | IC50 (KRAS G13C; [10]) [nM] | IC50 (KRAS G13D; [11]) [nM] | SMILES | further results |
| --- | --- | --- | --- | --- | --- | --- | --- | --- | --- | --- |
| – | – | – | – | – | < 10 | – | – | – | C=CC(=O)N1CCO[C@@]2(CCN(C(=O)N(C)[C@H](C(=O)N[C@H]3Cc4nc(cs4)-c4ccc5c(c4)c(c(-c4cccnc4[C@H](C)OC)n5CC(F)(F)F)CC(C)(C)COC(=O)C4CCCN(N4)C3=O)C(C)C)C2)C1 (some centres unmarked) [Example A594] | IC50 (KRAS G12C; KRAS G12C FRET data IC50, KRAS G12C): 10 to 100 nM; IC50 (KRAS G12D; KRAS G12D FRET data, IC50): 100 to 1000 nM; IC50 (KRAS G12S; KRAS G12S FRET data, IC50): 100 to 1000 nM; IC50 (KRAS G12V; KRAS G12V FRET data IC50, KRAS G12V): 100 to 1000 nM; IC50 (KRAS G13C; KRAS G13C FRET data IC50, KRAS G13C): 10 to 100 nM; IC50 (KRAS G13D; KRAS G13D FRET data IC50, KRAS G13D): 100 to 1000 nM; IC50 (KRAS WT; KRAS WT FRET data IC50, KRAS WT): 10 to 100 nM; IC50 (NRAS G12C; NRAS G12C FRET data IC50, NRAS G12C): 10 to 100 nM |
| 100 to 1000 nM | 100 to 1000 nM | 100 to 1000 nM | 10 to 100 nM | 100 to 1000 nM | 10 to 100 | 100 to 1000 | 10 to 100 | 100 to 1000 | C=CC(=O)N1CCOC2(CCN(C(=O)N(C)[C@H](C(=O)N[C@H]3Cc4cc(CF)cc(c4)-c4ccc5c(c4)c(c(-c4cccnc4[C@H](C)OC)n5CC(F)(F)F)CC(C)(C)COC(=O)C4CCCN(N4)C3=O)C(C)C)CC2)C1 (some centres unmarked) [Example A605] | – |
| 1000 to 10000 nM | 100 to 1000 nM | 100 to 1000 nM | 100 to 1000 nM | 100 to 1000 nM | 100 to 1000 | 100 to 1000 | 10 to 100 | 100 to 1000 | C=CC(=O)N1CCOC2(CCN(C(=O)N(C)[C@H](C(=O)N[C@H]3Cc4nc(n(C)n4)-c4ccc5c(c4)c(c(-c4cccnc4[C@H](C)OC)n5CC(F)(F)F)CC(C)(C)COC(=O)C4CCCN(N4)C3=O)C(C)C)CC2)C1 (some centres unmarked) [Example A606] | – |
| 1000 to 10000 nM | 1000 to 10000 nM | 1000 to 10000 nM | 100 to 1000 nM | 10 to 100 nM | < 10 | 10 to 100 | 10 to 100 | 1000 to 10000 | C=CC(=O)N1CCO[C@H]2CN(C(=O)N(C)[C@H](C(=O)N[C@H]3Cc4cccc(c4)-c4ccc5c(c4)c(c(-c4cccnc4[C@H](C)OC)n5CC)CC(C)(C)COC(=O)C4CCCN(N4)C3=O)C(C)C)C[C@H]21 (some centres unmarked) [Example A610] | – |
